According to patent US11413278B2, “Compounds and methods for promoting stress resistance” (priority 2015, dated 2022):
Entries after “also recorded” stand apart in the source; their conditions may differ. Like-named read-outs stand apart in the source and are kept apart here.

Key:
Format in all cases: cell-based, human
[1] = tested on: FOXO3; assay: qPCR analysis of FOXO3-regulated genes; settings: for Induction of at least two of five FOXO3-regulated genes (SOD2, GADD45A, CAT, DDB1, TXNIP): WI-38; for fold induction at 10 µM: Homo sapiens; for K = Sestrin induction: score
Procedure, shortened: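 WI-38 cells treated with compound at 10 μM for 24 h, followed by Cells-to-Ct RT-qPCR of FOXO3 target genes normalised to B2M, PPIA and GAPDH. FOXO3 or NRF2 dependence tested by prior 10 nM siRNA knockdown (36 h transfection, compound added ~24 h after replating).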

[2] = tested on: NRF2; assay: qPCR analysis of NRF2-regulated genes; settings: for fold induction at 10 µM: Homo sapiens
Procedure, shortened: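 WI-38 cells treated with compound at 10 μM for 24 hrs, then processed by Cells-to-Ct for RNA isolation, RT and qPCR of NRF2-regulated genes (HMOX1, NQO1, GCLC, GSTM1). Expression normalized to B2M, PPIA and GAPDH; siRNA knockdown of FOXO3 or NRF2 (10 nM) preceded treatment in some runs.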

[3] = tested on: mTOR; assay: mTOR inhibition (RPS6 phosphorylation status), In-Cell Western
Procedure, shortened: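 WI-38 cells exposed to compounds at 5, 10 and 20 μM for 24 hrs. Fixed cells co-stained overnight at 4° C with anti-RPS and anti-pRPS6 (Ser-235/236) antibodies, then DyLight 680/800 secondaries. Phospho-RPS6 relative to total RPS6 read by near-infrared In-Cell Western imaging.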

[4] = 24 h, Assay 10(m), at 10 uM, qPCR, read-out: Induction of FOXO3-regulated genes: CAT normalized fold-change
[5] = 10 μM, 24 hrs, WI-38 cells, qPCR, normalized to B2M, n = 4, read-out: CAT expression, normalized fold change (FOXO3-regulated gene)
[6] = 10 μM, 24 hrs, WI-38 cells, qPCR, normalized to B2M, n = 4, read-out: SESN1 expression, normalized fold change (FOXO3-regulated gene)
[7] = WI-38 cells, 10 μM, 24 hrs, n=4, qPCR normalized by B2M, read-out: DDB1 Normalized fold change
[8] = WI-38 cells, 10 μM, 24 hrs, n=4, qPCR normalized by B2M, read-out: GADD45A Normalized fold change
[9] = WI-38 cells, 10 μM, 24 hrs, n=4, qPCR normalized by B2M, read-out: SESN1 Normalized fold change
[10] = fold change, qPCR, WI-38 cells, 10 μM, 24 hrs, read-out: Summary of effects on FOXO3-regulated genes: CAT
[11] = fold change, qPCR, WI-38 cells, 10 μM, 24 hrs, read-out: Summary of effects on FOXO3-regulated genes: SESN1
[12] = qPCR, WI-38 cells, 10 μM, n=4, 24 hrs, normalized by B2M, read-out: CAT Normalized fold change
[13] = qPCR, WI-38 cells, 10 μM, n=4, 24 hrs, normalized by B2M, read-out: SOD2 Normalized fold change
[14] = qPCR, WI-38 cells, 10 μM, n=4, 24 hrs, normalized by B2M, read-out: TXNIP Normalized fold change
[15] = 24 h, Assay 12(o), at 10 uM, qPCR, read-out: Induction of NRF2-regulated genes: GSTM1 normalized fold-change
[16] = 24 h, Assay 12(o), at 10 uM, qPCR, read-out: Induction of NRF2-regulated genes: NQO1 normalized fold-change
[17] = rounded fold change, WI-38 cells, 10 μM, 24 hrs (RP29 for Gr-4D), read-out: Summary of effects on NRF2-regulated genes: GSTM1
[18] = rounded fold change, WI-38 cells, 10 μM, 24 hrs (RP29 for Gr-4D), read-out: Summary of effects on NRF2-regulated genes: NQO1
[19] = 10 μM, 24 hrs, WI-38 cells, qPCR, normalized to B2M, n = 4, read-out: GSTM1 expression, normalized fold change (NRF2-regulated gene)
[20] = 10 μM, 24 hrs, WI-38 cells, qPCR, normalized to B2M, n = 4, read-out: NQO1 expression, normalized fold change (NRF2-regulated gene)
[21] = WI-38 cells, 10 μM, 24 hrs, n=4, qPCR normalized by B2M, read-out: GCLC Normalized fold change
[22] = WI-38 cells, 10 μM, 24 hrs, n=4, qPCR normalized by B2M, read-out: GSTM1 Normalized fold change
[23] = WI-38 cells, 10 μM, 24 hrs, n=4, qPCR normalized by B2M, read-out: HMOX1 Normalized fold change
[24] = WI-38 cells, 10 μM, 24 hrs, n=4, qPCR normalized by B2M, read-out: NQO1 Normalized fold change

`O=C(Nc1cc(C(F)(F)F)ccc1Cl)c1ccc([N+](=O)[O-])o1` [Gr-1B] was tested, and the “Induction of at least two of five FOXO3-regulated genes (SOD2, GADD45A, CAT, DDB1, TXNIP)” value ([1]; 10 μM, 24 hrs) was “significant induction; also recorded: significant, induction”, the “E = Potential FOXO3 Activation” value ([1]; 2-point score) was 0 and the fold induction at 10 µM [1, 4] was 1.4. It also gave a fold induction at 10 µM ([1]; 24 h, Assay 10(m), at 10 uM, qPCR, read-out: Induction of FOXO3-regulated genes: TXNIP normalized fold-change) of 1.52, a fold induction at 10 µM [1, 5] of 1.4 and a fold induction at 10 µM [1, 6] of 1.3. It also gave a fold induction at 10 µM ([1]; 10 μM, 24 hrs, WI-38 cells, qPCR, normalized to B2M, n = 4, read-out: TXNIP expression, normalized fold change (FOXO3-regulated gene)) of 1.94, a fold induction at 10 µM [1, 7] of 1.18 and a fold induction at 10 µM [1, 8] of 0.947. It also gave a fold induction at 10 µM [1, 9] of 1.3, a fold induction at 10 µM [1, 10] of 1.4 and a fold induction at 10 µM [1, 11] of 1.3. It also gave a fold induction at 10 µM ([1]; fold change, qPCR, WI-38 cells, 10 μM, 24 hrs, read-out: Summary of effects on FOXO3-regulated genes: TXNIP) of 1.94, a fold induction at 10 µM [1, 12] of 1.4 and a fold induction at 10 µM [1, 13] of 1.21. The fold induction at 10 µM [1, 14] was 1.94, the “K = Sestrin induction” value [1] was 0 and the “E = Potential FOXO3 Activation” value ([1]; summary score) was 0. The “F = Potential NRF2 Activation” value ([2]; 2-point score) was 0, the fold induction at 10 µM ([2]; 24 h, Assay 12(o), at 10 uM, qPCR, read-out: Induction of NRF2-regulated genes: GCLC normalized fold-change) was 1.24 and the fold induction at 10 µM [2, 15] was 1.44. It also gave a fold induction at 10 µM [2, 16] of 1.19, a fold induction at 10 µM [2, 17] of 2 and a fold induction at 10 µM [2, 18] of 1.31. It also gave a fold induction at 10 µM [2, 19] of 2, a fold induction at 10 µM [2, 20] of 1.31 and a fold induction at 10 µM [2, 21] of 1.44. The fold induction at 10 µM [2, 22] was 2, the fold induction at 10 µM [2, 23] was 1.31 and the fold induction at 10 µM [2, 24] was 1.31. For the same compound, the “F = Potential NRF2 Activation” value ([2]; summary score) was 0, the “G = mTOR down-regulation” value ([3]; 2-point score) was 0 and the “G = mTOR down-regulation” value ([3]; summary score) was 0.

In the case of `O=C(/C(=C/c1ccc(Cl)cc1)c1nc2ccccc2[nH]1)c1ccccc1` [Gr-4D], the “Induction of at least two of five FOXO3-regulated genes (SOD2, GADD45A, CAT, DDB1, TXNIP)” value ([1]; 10 μM, 24 hrs) is reported as “could induce both FOXO3- and NRF2-regulated genes; also recorded: significant induction; also recorded: significant, induction”, the “SOD2 expression, normalized fold change (FOXO3-regulated gene)” value ([1]; 10 μM, 24 hrs, WI-38 cells, qPCR, normalized to B2M, n = 4) is reported as “SOD2 1.20, fold” and the “E = Potential FOXO3 Activation” value ([1]; 2-point score) is reported as 0. For the same compound, the fold induction at 10 µM [1, 4] was 1.37, the fold induction at 10 µM ([1]; 24 h, Assay 10(m), at 10 uM, qPCR, read-out: Induction of FOXO3-regulated genes: DDB1 normalized fold-change) was 1.41 and the fold induction at 10 µM ([1]; 24 h, Assay 10(m), at 10 uM, qPCR, read-out: Induction of FOXO3-regulated genes: GADD45A normalized fold-change) was 2.11. For the same compound, the fold induction at 10 µM ([1]; 24 h, Assay 10(m), at 10 uM, qPCR, read-out: Induction of FOXO3-regulated genes: SESN1 normalized fold-change) was 2.16, the fold induction at 10 µM ([1]; 24 h, Assay 10(m), at 10 uM, qPCR, read-out: Induction of FOXO3-regulated genes: SOD2 normalized fold-change) was 1.2 and the fold induction at 10 µM ([1]; WI-38, 24 h, read-out: SESN1 expression) was greater than 1.5. For the same compound, the fold induction at 10 µM [1, 5] was 1.37, the fold induction at 10 µM ([1]; 10 μM, 24 hrs, WI-38 cells, qPCR, normalized to B2M, n = 4, read-out: DDB1 expression, normalized fold change (FOXO3-regulated gene)) was 1.41 and the fold induction at 10 µM ([1]; 10 μM, 24 hrs, WI-38 cells, qPCR, normalized to B2M, n = 4, read-out: GADD45A expression, normalized fold change (FOXO3-regulated gene)) was 2.11. The fold induction at 10 µM [1, 6] was 2.16, the fold induction at 10 µM [1, 7] was 1.41 and the fold induction at 10 µM [1, 8] was 2.11. The fold induction at 10 µM [1, 9] was 2.16, the fold induction at 10 µM [1, 10] was 1.37 and the fold induction at 10 µM ([1]; fold change, qPCR, WI-38 cells, 10 μM, 24 hrs, read-out: Summary of effects on FOXO3-regulated genes: DDB1) was 1.41. The fold induction at 10 µM ([1]; fold change, qPCR, WI-38 cells, 10 μM, 24 hrs, read-out: Summary of effects on FOXO3-regulated genes: GADD45A) was 2.11, the fold induction at 10 µM [1, 11] was 2.16 and the fold induction at 10 µM [1, 12] was 1.37. For the same compound, the fold induction at 10 µM [1, 13] was 1.2, the fold induction at 10 µM [1, 14] was 1.09 and the “Summary of effects on FOXO3-regulated genes: SOD2” value ([1]; fold change, qPCR, WI-38 cells, 10 μM, 24 hrs) was “SOD2 1.20,”. For the same compound, the “K = Sestrin induction” value [1] was 1, the “E = Potential FOXO3 Activation” value ([1]; summary score) was 0 and the “Induction of at least two NRF2-regulated genes (HMOX1, NQO1, GCLC, GSTM1)” value ([2]; 10 μM, 24 hrs, WI-38) was “could induce both FOXO3- and NRF2-regulated genes”. For the same compound, the “F = Potential NRF2 Activation” value ([2]; 2-point score) was 2, the “Potential NRF2 Activation (>=2 target genes induced, by >=1.5-fold)” value ([2]; Assay 13(p)) was “YES” and the fold induction at 10 µM [2, 15] was 1.52. The fold induction at 10 µM ([2]; 24 h, Assay 12(o), at 10 uM, qPCR, read-out: Induction of NRF2-regulated genes: HMOX1 normalized fold-change) was 4.55, the fold induction at 10 µM [2, 16] was 2.56 and the fold induction at 10 µM ([2]; rounded fold change, WI-38 cells, 10 μM, 24 hrs (RP11 for Gr-1D, RP29 for Gr-4D), read-out: Summary of effects on NRF2-regulated genes: HMOX1) was 4.55. It also gave a fold induction at 10 µM [2, 17] of 1.52, a fold induction at 10 µM [2, 18] of 2.56 and a fold induction at 10 µM ([2]; 10 μM, 24 hrs, WI-38, read-out: Expression of at least two NRF2 target genes) greater than 1.5. It also gave a fold induction at 10 µM [2, 19] of 1.52, a fold induction at 10 µM ([2]; 10 μM, 24 hrs, WI-38 cells, qPCR, normalized to B2M, n = 4, read-out: HMOX1 expression, normalized fold change (NRF2-regulated gene)) of 4.55 and a fold induction at 10 µM [2, 20] of 2.56. For the same compound, the fold induction at 10 µM [2, 21] was 0.863, the fold induction at 10 µM [2, 22] was 1.52 and the fold induction at 10 µM [2, 23] was 4.55. The fold induction at 10 µM [2, 24] was 2.56, the “Summary of effects on NRF2-regulated genes: HMOX1, second run” value ([2]; run RP42 (Gr-1D) / RP52 (Gr-4D), WI-38 cells, 10 μM) was 2.40, and the “Summary of effects on NRF2-regulated genes: NQO1, second run” value ([2]; run RP52 (Gr-4D), WI-38 cells, 10 μM) was 1.49,. For the same compound, the “F = Potential NRF2 Activation” value ([2]; summary score) was 2, the “G = mTOR down-regulation” value ([3]; 2-point score) was 0 and the “G = mTOR down-regulation” value ([3]; summary score) was 0.
